Ki data for 16 molecules are collected here from ChEMBL document CHEMBL1130744, “Potent and selective inhibitors of the proteasome: dipeptidyl boronic acids” (Bioorg Med Chem Lett, 1998).

pKi: −log10 of the molar value. Non-standard residues stand in square brackets, D forms with d. Residues, ends and D or L forms follow the SMILES beside them. *: point of attachment. 1Nal = N[C@@H](Cc1cccc2ccccc12)C(=O)O; 2Nal = N[C@@H](Cc1ccc2ccccc2c1)C(=O)O; Cbz = O=C(OCc1ccccc1)*; CF3 = FC(F)(F)*; CH2Cl = ClC*

The first assay deals with Proteasome. Kind of assay: Inhibitory activity against 20S Proteasome. The assay is classed as subcellular, Oryctolagus cuniculus.
With `CC(C)C[C@H](NC(=O)OCc1ccccc1)C(=O)N[C@@H](CC(C)C)C(=O)N[C@H](C=O)Cc1ccc2ccccc2c1` (Cbz-Leu-Leu-[2Nal]-aldehyde), the pKi is 7.60.

Regarding `CC(C)C[C@H](NC(=O)OCc1ccccc1)C(=O)N[C@@H](CC(C)C)C(=O)N[C@@H](CC(C)C)C(=O)c1nc2ccccc2o1`, the pKi was 6.67.

`CC(C)C[C@@H](C=O)NC(=O)[C@H](Cc1cccc2ccccc12)NC(=O)c1cnccn1`: the pKi is 7.01.

As to `CC[C@@H](C)[C@@H](C=O)NC(=O)[C@H](CC(C)C)NC(=O)[C@H](CC(C)C)NC(=O)OCc1ccccc1`, the pKi was 6.89.

Molecule `CC(C)C[C@@H](C=O)NC(=O)[C@H](CC(C)C)NC(=O)[C@H](CC(C)C)NC(=O)OCc1ccccc1` [MG-132] (Cbz-Leu-Leu-Leu-aldehyde) had a pKi of 8.40.

Molecule `CC(C)C[C@H](NC(=O)OCc1ccccc1)C(=O)N[C@@H](CC(C)C)C(=O)N[C@@H](C)C=O` (Cbz-Leu-Leu-Ala-aldehyde) gave a pKi of 6.68.

`CC(C)C[C@H](NC(=O)[C@H](Cc1cccc2ccccc12)NC(=O)c1cnccn1)B(O)O`: the pKi was 9.74.

`CC(C)C[C@H](NC(=O)[C@H](CC(C)C)NC(=O)[C@H](CC(C)C)NC(=O)OCc1ccccc1)C(=O)CCl` (Cbz-Leu-Leu-Leu-CH2Cl): the pKi was 4.66.

`CC(C)C[C@@H](C=O)NC(=O)[C@H](CC(C)C)NC(=O)[C@H](Cc1ccc2ccccc2c1)NC(=O)OCc1ccccc1` (Cbz-[2Nal]-Leu-Leu-aldehyde) showed a pKi of 9.62.

As to `CC(C)C[C@H](NC(=O)OCc1ccccc1)C(=O)N[C@@H](CC(C)C)C(=O)NCC=O` (Cbz-Leu-Leu-Gly-aldehyde), the negative logarithm of the Ki (pKi) is 5.42.

`CCOC(=O)C(=O)C(=O)[C@H](CC(C)C)NC(=O)[C@H](CC(C)C)NC(=O)[C@H](CC(C)C)NC(=O)OCc1ccccc1` gave a pKi of 7.35.

For `CC(C)C[C@@H](C=O)NC(=O)[C@H](Cc1cccc2ccccc12)NC(=O)[C@H](Cc1ccc2ccccc2c1)NC(=O)OCc1ccccc1` (Cbz-[2Nal]-[1Nal]-Leu-aldehyde), the pKi is 10.82.

Molecule `CC(C)C[C@@H](C=O)NC(=O)[C@H](Cc1ccccc1)NC(=O)c1cnccn1` showed a pKi of 5.80.

Turning to `CC(C)C[C@H](NC(=O)OCc1ccccc1)C(=O)N[C@@H](CC(C)C)C(=O)N[C@@H](CC(C)C)C(=O)C(F)(F)F` (Cbz-Leu-Leu-Leu-CF3), the pKi is 5.85.

The next assay has as its target T1, Neutrophil elastase (Homo sapiens, UniProt P08246).
T1 sequence (P08246 whole entry): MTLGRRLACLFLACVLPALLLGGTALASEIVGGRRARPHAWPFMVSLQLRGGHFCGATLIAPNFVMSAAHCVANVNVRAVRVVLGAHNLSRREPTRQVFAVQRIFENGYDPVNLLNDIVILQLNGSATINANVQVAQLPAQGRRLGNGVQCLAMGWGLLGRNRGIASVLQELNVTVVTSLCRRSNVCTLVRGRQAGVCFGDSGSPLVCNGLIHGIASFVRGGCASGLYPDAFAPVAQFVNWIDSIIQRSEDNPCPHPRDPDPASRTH
Kind of assay: Inhibitory activity against human leukocyte elastase.
As for `CC(C)C[C@H](NC(=O)[C@H](Cc1ccccc1)NC(=O)c1cnccn1)B(O)O` [BORTEZOMIB], the pKi was 5.64.

In a further assay the target is Cathepsin B (Homo sapiens, UniProt P07858). Kind of assay: Inhibitory activity against Cathepsin B.
Turning to `CC(C)C[C@H](NC(=O)[C@H](CC(C)C)NC(=O)[C@H](CC(C)C)NC(=O)OCc1ccccc1)B(O)O`, the pKi is 8.21.

For the next assay, the target named is Chymotrypsinogen B (Homo sapiens, UniProt P17538). As to the kind of experiment: Inhibitory activity against human Chymotrypsinogen.
Chymotrypsinogen B, sequence (P17538 34-164 limits assumed, other chains not shown): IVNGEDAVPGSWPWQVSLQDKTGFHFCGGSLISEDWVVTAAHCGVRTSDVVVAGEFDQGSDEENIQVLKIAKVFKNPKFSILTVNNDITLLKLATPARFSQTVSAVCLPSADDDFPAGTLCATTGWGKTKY
Chymotrypsinogen B, sequence (P17538 167-263 limits assumed, other chains not shown): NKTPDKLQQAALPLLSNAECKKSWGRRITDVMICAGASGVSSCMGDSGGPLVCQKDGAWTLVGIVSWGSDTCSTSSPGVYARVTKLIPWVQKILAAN
`CC(C)C[C@H](NC(=O)[C@H](Cc1ccccc1)NC(=O)c1cnccn1)B(O)O` [BORTEZOMIB] had a pKi of 6.49.

In a further assay the target is T2, Cathepsin G (Homo sapiens, UniProt P08311).
T2 sequence (P08311 whole entry): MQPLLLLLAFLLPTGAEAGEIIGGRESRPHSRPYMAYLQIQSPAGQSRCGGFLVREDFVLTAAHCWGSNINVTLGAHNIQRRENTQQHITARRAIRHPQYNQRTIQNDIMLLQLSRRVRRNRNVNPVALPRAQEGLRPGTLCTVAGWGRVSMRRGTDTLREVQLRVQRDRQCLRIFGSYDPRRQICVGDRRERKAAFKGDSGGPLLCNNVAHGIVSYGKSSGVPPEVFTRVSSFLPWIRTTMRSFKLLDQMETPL
As to the kind of experiment: Inhibitory activity against human cathepsin G.
Molecule `CC(C)C[C@H](NC(=O)[C@H](Cc1ccccc1)NC(=O)c1cnccn1)B(O)O` [BORTEZOMIB] had a negative-log Ki (pKi) of 6.20.

For another assay, the target named is Prothrombin (Homo sapiens, UniProt P00734). As to the kind of experiment: Inhibitory activity against thrombin.
Molecule `CC(C)C[C@H](NC(=O)[C@H](Cc1ccccc1)NC(=O)c1cnccn1)B(O)O` [BORTEZOMIB] had a pKi of 4.89.

Broadly, the pKi is the negative decadic logarithm of the Ki, by convention in mol/L. Lower therefore signals a high Ki.
